Test results taken from patent US20210251963A1, “UREA DERIVATIVES FOR USE IN THE TREATMENT OF SUBJECTS WITH ELEVATED EXPRESSION AND/OR ACTIVITY OF SRPK1” (Scandion Oncology A/S, priority 2018, published 2021).

Tests used:
Experiment in all cases: Premier Screen kinase activity screening (33P ATP filter binding)
Assay type in all cases: biochemical
EIF2AK3 = target: T1, EIF2AK3 (Homo sapiens, UniProt Q9NZJ5); conditions: 10 μM SCO-101, mean of assay duplicates, read-out: Kinase activity (percentage of DMSO control)
T1 construct: MRC Dundee (screening service)
Text: (§1) The kinase activity screening was done at MRC in Dundee. The screen was a so-called “Premier Screen” with 140 kinases. More specific information can be found here: http://www.kinase-screen.mrc.ac.uk/services/premier-screen
(§2) The method is based on a radioactive filter binding assay using 33P ATP (Hastie, et al 2006. Nat Protoc. 2006; 1(2):968-71; Bain, et al 2007. Biochem J. 2007 Dec. 15; 408(3):297-315). This method is sensitive, accurate and provides a direct measure of kinase enzyme activity. A concentration of 10 μM SCO-101 was used.
(§3) In the table below, the data is portrayed as the mean percentage activity of assay duplicates and a standard deviation. These percentage activities were calculated in comparison to DMSO controls. 10 μM SCO-101 reduced the activity of SRPK1 to 6% of the DMSO control.

BRK = target: T2, BRK (Homo sapiens, UniProt Q13882); conditions: 10 μM SCO-101, mean of assay duplicates, read-out: Kinase activity (percentage of DMSO control)
T2 construct: MRC in Dundee (screening service)
Text: as §1, §2, §3

IRAK1 = IRAK1 (Homo sapiens, UniProt P51617); conditions: 10 μM SCO-101, mean of assay duplicates, read-out: Kinase activity (percentage of DMSO control)
Text: as §1, §2, §3

NEK6 = target: T3, NEK6 (Homo sapiens, UniProt Q9HC98); conditions: 10 μM SCO-101, mean of assay duplicates, read-out: Kinase activity (percentage of DMSO control)
T3 construct: MRC in Dundee (screening service)
Text: as §1, §2, §3

MNK2 = target: T4, MNK2 (Homo sapiens, UniProt Q9HBH9); conditions: 10 μM SCO-101, mean of assay duplicates, read-out: Kinase activity (percentage of DMSO control)
T4 construct: purchased MRC Dundee, Premier Screen (contract screening service)
Text: as §1, §2, §3

SIK3 = target: T5, SIK3 (Homo sapiens, UniProt Q9Y2K2); conditions: 10 μM SCO-101, mean of assay duplicates, read-out: Kinase activity (percentage of DMSO control)
T5 construct: purchased MRC in Dundee (Premier Screen service)
Text: as §1, §2, §3

EPH-A4 = target: T6, EPH-A4 (Homo sapiens, UniProt P54764); conditions: 10 μM SCO-101, mean of assay duplicates, read-out: Kinase activity (percentage of DMSO control)
T6 construct: MRC Dundee (screening service)
Text: as §1, §2, §3

MST4 = MST4 (Homo sapiens, UniProt Q9P289); conditions: 10 μM SCO-101, mean of assay duplicates, read-out: Kinase activity (percentage of DMSO control)
Text: as §1, §2, §3

ERK8 = target: T7, ERK8 (Homo sapiens, UniProt Q8TD08); conditions: 10 μM SCO-101, mean of assay duplicates, read-out: Kinase activity (percentage of DMSO control)
T7 construct: MRC in Dundee (screening service)
Text: as §1, §2, §3

MKK6 = target: T8, MKK6 (Homo sapiens, UniProt P52564); conditions: 10 μM SCO-101, mean of assay duplicates, read-out: Kinase activity (percentage of DMSO control)
T8 construct: purchased MRC Dundee, Premier Screen (contract screening service)
Text: as §1, §2, §3

RIPK2 = RIPK2 (Homo sapiens, UniProt O43353); conditions: 10 μM SCO-101, mean of assay duplicates, read-out: Kinase activity (percentage of DMSO control)
Text: as §1, §2, §3

CDK2-Cyclin A = CDK2-Cyclin A (Homo sapiens, UniProt P24941); conditions: 10 μM SCO-101, mean of assay duplicates, read-out: Kinase activity (percentage of DMSO control)
Text: as §1, §2, §3

CSK = target: T9, CSK (Homo sapiens, UniProt P41240); conditions: 10 μM SCO-101, mean of assay duplicates, read-out: Kinase activity (percentage of DMSO control)
T9 construct: purchased MRC Dundee, Premier Screen (contract screening service)
Text: as §1, §2, §3

ZAP70 = target: T10, ZAP70 (Homo sapiens, UniProt P43403); conditions: 10 μM SCO-101, mean of assay duplicates, read-out: Kinase activity (percentage of DMSO control)
T10 construct: MRC Dundee (screening service)
Text: as §1, §2, §3

WNK1 = target: T11, WNK1 (Homo sapiens, UniProt Q9H4A3); conditions: 10 μM SCO-101, mean of assay duplicates, read-out: Kinase activity (percentage of DMSO control)
T11 construct: purchased MRC Dundee, Premier Screen (contract screening service)
Text: as §1, §2, §3

CK1γ2 = target: T12, CK1γ2 (Homo sapiens, UniProt P78368); conditions: 10 μM SCO-101, mean of assay duplicates, read-out: Kinase activity (percentage of DMSO control)
T12 construct: purchased MRC Dundee, Premier Screen (contract screening service)
Text: as §1, §2, §3

TLK1 = TLK1 (Homo sapiens, UniProt Q9UKI8); conditions: 10 μM SCO-101, mean of assay duplicates, read-out: Kinase activity (percentage of DMSO control)
Text: as §1, §2, §3

MSK1 = target: T13, MSK1 (Homo sapiens, UniProt O75582); conditions: 10 μM SCO-101, mean of assay duplicates, read-out: Kinase activity (percentage of DMSO control)
T13 construct: MRC Dundee (screening service)
Text: as §1, §2, §3

PAK5 = PAK5 (Homo sapiens, UniProt Q9P286); conditions: 10 μM SCO-101, mean of assay duplicates, read-out: Kinase activity (percentage of DMSO control)
Text: as §1, §2, §3

EF2K = target: T14, EF2K (Homo sapiens, UniProt O00418); conditions: 10 μM SCO-101, mean of assay duplicates, read-out: Kinase activity (percentage of DMSO control)
T14 construct: MRC Dundee (screening service)
Text: as §1, §2, §3

VEG-FR = target: T15, VEG-FR (Homo sapiens, UniProt P17948); conditions: 10 μM SCO-101, mean of assay duplicates, read-out: Kinase activity (percentage of DMSO control)
T15 construct: purchased MRC in Dundee (Premier Screen service)
Text: as §1, §2, §3

JNK2 = target: T16, JNK2 (Homo sapiens, UniProt P45984); conditions: 10 μM SCO-101, mean of assay duplicates, read-out: Kinase activity (percentage of DMSO control)
T16 construct: purchased MRC Dundee, Premier Screen (contract screening service)
Text: as §1, §2, §3

TBK1 = target: T17, TBK1 (Homo sapiens, UniProt Q9UHD2); conditions: 10 μM SCO-101, mean of assay duplicates, read-out: Kinase activity (percentage of DMSO control)
T17 construct: purchased MRC in Dundee (Premier Screen service)
Text: as §1, §2, §3

PINK = target: T18, PINK (Tribolium castaneum, UniProt D6WMX4); conditions: 10 μM SCO-101, mean of assay duplicates, read-out: Kinase activity (percentage of DMSO control)
T18 construct: purchased MRC Dundee, Premier Screen (contract screening service)
Text: as §1, §2, §3

YES1 = target: T19, YES1 (Homo sapiens, UniProt P07947); conditions: 10 μM SCO-101, mean of assay duplicates, read-out: Kinase activity (percentage of DMSO control)
T19 construct: MRC Dundee (screening service)
Text: as §1, §2, §3

JNK1 = target: T20, JNK1 (Homo sapiens, UniProt P45983); conditions: 10 μM SCO-101, mean of assay duplicates, read-out: Kinase activity (percentage of DMSO control)
T20 construct: purchased MRC Dundee, Premier Screen (contract screening service)
Text: as §1, §2, §3

CDK9-Cyclin T1 = target: T21, CDK9-Cyclin T1 (Homo sapiens, UniProt P50750); conditions: 10 μM SCO-101, mean of assay duplicates, read-out: Kinase activity (percentage of DMSO control)
T21 construct: purchased MRC Dundee, Premier Screen (contract screening service)
Text: as §1, §2, §3

HIPK3 = HIPK3 (Homo sapiens, UniProt Q9H422); conditions: 10 μM SCO-101, mean of assay duplicates, read-out: Kinase activity (percentage of DMSO control)
Text: as §1, §2, §3

PKD1 = PKD1 (Homo sapiens, UniProt Q15139); conditions: 10 μM SCO-101, mean of assay duplicates, read-out: Kinase activity (percentage of DMSO control)
Text: as §1, §2, §3

DYRK2 = target: T22, DYRK2 (Homo sapiens, UniProt Q92630); conditions: 10 μM SCO-101, mean of assay duplicates, read-out: Kinase activity (percentage of DMSO control)
T22 construct: purchased MRC in Dundee (Premier Screen service)
Text: as §1, §2, §3

JAK3 = JAK3 (Homo sapiens, UniProt P52333); conditions: 10 μM SCO-101, mean of assay duplicates, read-out: Kinase activity (percentage of DMSO control)
Text: as §1, §2, §3

IRAK4 = IRAK4 (Homo sapiens, UniProt Q9NWZ3); conditions: 10 μM SCO-101, mean of assay duplicates, read-out: Kinase activity (percentage of DMSO control)
Text: as §1, §2, §3

ASK1 = target: T23, ASK1 (Homo sapiens, UniProt Q99683); conditions: 10 μM SCO-101, mean of assay duplicates, read-out: Kinase activity (percentage of DMSO control)
T23 construct: purchased MRC in Dundee (Premier Screen service)
Text: as §1, §2, §3

PHK = conditions: 10 μM SCO-101, mean of assay duplicates
Text: as §1, §2, §3

CAMK1 = target: T24, CAMK1 (Homo sapiens, UniProt Q14012); conditions: 10 μM SCO-101, mean of assay duplicates, read-out: Kinase activity (percentage of DMSO control)
T24 construct: purchased MRC in Dundee (Premier Screen service)
Text: as §1, §2, §3

FGF-R1 = target: T25, FGF-R1 (Homo sapiens, UniProt P11362); conditions: 10 μM SCO-101, mean of assay duplicates, read-out: Kinase activity (percentage of DMSO control)
T25 construct: purchased MRC in Dundee (Premier Screen service)
Text: as §1, §2, §3

T15 sequence (P17948 784-1338 limits assumed): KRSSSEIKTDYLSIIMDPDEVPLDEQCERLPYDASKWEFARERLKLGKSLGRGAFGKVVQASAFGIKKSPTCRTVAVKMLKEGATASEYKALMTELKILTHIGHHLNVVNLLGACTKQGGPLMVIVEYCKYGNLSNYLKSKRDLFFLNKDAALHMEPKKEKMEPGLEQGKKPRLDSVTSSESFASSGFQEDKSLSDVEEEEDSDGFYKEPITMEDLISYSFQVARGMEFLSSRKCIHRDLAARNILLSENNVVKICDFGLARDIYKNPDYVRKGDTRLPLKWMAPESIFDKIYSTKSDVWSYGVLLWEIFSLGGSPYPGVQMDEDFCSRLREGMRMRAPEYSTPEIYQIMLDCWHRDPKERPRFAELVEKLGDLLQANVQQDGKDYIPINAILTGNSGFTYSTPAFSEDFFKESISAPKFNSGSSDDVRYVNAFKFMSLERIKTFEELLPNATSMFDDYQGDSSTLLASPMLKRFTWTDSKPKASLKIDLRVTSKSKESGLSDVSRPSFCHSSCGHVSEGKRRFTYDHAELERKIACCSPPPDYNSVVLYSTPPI
T9 sequence (P41240 whole entry, species assumed): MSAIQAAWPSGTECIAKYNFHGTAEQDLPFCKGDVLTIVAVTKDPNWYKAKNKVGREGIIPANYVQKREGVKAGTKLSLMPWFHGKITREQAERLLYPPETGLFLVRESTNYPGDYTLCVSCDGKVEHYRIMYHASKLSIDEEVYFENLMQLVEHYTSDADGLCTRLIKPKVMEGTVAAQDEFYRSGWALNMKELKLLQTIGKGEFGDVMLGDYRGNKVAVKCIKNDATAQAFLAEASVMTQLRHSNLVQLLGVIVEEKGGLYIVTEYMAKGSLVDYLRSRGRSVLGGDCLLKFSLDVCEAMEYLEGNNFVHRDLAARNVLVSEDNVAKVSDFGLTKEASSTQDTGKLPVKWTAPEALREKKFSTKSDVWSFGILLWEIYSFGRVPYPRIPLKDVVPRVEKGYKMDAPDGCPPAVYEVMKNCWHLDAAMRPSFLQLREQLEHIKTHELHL
T5 sequence (Q9Y2K2 whole entry, species assumed): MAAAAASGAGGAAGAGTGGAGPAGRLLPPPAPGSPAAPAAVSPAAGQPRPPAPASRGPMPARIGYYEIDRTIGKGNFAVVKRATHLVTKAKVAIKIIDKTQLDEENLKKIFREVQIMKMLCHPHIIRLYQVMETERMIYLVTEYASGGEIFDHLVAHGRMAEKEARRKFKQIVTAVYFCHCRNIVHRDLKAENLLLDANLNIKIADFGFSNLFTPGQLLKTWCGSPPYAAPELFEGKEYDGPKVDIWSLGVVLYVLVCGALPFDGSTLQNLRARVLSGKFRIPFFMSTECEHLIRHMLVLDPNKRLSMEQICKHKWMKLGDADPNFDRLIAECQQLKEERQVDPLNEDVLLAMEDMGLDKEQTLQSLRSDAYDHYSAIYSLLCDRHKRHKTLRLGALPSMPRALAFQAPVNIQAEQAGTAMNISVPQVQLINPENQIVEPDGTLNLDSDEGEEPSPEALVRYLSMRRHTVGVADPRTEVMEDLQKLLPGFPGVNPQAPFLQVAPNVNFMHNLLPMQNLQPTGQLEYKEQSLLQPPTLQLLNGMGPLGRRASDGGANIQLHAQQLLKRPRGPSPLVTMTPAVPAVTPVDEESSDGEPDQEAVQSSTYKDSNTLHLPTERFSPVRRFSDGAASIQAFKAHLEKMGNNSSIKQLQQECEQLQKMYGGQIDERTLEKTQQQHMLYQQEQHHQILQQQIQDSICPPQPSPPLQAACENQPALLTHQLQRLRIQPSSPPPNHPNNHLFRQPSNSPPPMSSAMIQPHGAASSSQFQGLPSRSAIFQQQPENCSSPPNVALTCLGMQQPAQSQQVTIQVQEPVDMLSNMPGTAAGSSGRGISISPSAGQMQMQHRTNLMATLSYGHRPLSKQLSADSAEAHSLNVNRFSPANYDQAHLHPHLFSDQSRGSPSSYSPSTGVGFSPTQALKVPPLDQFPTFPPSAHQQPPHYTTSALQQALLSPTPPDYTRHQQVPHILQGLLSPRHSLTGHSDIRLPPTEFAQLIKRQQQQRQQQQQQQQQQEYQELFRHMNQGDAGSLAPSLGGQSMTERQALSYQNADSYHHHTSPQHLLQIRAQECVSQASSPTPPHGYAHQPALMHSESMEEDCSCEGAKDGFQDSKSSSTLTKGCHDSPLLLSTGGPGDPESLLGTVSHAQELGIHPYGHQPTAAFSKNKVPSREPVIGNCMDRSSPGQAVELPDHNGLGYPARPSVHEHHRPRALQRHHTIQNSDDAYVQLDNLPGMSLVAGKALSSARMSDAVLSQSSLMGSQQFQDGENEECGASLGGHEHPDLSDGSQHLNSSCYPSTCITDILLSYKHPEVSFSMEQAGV
T16 sequence (P45984 whole entry, species assumed): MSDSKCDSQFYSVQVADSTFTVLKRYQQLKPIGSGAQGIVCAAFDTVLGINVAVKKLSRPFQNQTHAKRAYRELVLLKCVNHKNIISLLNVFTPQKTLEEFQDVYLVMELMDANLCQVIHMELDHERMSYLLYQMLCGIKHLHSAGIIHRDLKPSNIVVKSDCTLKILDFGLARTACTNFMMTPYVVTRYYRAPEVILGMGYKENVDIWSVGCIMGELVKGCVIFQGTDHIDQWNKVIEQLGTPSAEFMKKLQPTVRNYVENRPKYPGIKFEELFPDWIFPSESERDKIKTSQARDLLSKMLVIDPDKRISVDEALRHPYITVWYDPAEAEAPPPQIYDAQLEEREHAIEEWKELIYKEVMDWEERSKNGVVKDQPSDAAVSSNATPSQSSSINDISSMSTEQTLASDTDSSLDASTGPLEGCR
T21 sequence (P50750 whole entry): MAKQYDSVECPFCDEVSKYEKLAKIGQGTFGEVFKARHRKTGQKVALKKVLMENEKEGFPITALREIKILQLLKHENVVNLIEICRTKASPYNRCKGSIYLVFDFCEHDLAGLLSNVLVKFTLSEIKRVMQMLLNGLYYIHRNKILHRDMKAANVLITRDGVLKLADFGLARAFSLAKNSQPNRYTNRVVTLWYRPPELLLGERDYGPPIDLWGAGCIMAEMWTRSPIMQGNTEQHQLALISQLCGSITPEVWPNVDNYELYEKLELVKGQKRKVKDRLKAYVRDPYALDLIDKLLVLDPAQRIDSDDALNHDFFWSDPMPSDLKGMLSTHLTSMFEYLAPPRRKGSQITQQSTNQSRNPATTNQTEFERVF
T21 sequence (O60563 whole entry partner): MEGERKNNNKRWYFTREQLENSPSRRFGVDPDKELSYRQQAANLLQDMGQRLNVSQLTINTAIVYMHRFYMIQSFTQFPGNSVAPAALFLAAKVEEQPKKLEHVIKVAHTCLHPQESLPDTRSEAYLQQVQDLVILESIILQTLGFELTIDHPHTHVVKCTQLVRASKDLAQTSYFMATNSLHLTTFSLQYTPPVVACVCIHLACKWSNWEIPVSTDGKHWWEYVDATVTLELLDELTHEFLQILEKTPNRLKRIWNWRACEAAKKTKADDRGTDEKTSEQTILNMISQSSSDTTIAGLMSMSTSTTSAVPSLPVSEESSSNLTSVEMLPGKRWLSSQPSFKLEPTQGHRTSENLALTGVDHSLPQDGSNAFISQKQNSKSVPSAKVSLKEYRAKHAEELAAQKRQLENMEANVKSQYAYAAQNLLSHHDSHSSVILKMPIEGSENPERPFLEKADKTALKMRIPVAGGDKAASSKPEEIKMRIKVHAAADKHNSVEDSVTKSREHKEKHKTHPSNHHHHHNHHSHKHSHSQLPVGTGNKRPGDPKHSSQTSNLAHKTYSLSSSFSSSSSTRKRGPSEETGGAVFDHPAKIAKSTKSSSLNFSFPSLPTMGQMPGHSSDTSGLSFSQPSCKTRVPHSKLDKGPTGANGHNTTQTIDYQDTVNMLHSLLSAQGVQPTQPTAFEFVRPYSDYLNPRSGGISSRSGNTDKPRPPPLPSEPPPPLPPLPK
PAK5, sequence (Q9P286 whole entry): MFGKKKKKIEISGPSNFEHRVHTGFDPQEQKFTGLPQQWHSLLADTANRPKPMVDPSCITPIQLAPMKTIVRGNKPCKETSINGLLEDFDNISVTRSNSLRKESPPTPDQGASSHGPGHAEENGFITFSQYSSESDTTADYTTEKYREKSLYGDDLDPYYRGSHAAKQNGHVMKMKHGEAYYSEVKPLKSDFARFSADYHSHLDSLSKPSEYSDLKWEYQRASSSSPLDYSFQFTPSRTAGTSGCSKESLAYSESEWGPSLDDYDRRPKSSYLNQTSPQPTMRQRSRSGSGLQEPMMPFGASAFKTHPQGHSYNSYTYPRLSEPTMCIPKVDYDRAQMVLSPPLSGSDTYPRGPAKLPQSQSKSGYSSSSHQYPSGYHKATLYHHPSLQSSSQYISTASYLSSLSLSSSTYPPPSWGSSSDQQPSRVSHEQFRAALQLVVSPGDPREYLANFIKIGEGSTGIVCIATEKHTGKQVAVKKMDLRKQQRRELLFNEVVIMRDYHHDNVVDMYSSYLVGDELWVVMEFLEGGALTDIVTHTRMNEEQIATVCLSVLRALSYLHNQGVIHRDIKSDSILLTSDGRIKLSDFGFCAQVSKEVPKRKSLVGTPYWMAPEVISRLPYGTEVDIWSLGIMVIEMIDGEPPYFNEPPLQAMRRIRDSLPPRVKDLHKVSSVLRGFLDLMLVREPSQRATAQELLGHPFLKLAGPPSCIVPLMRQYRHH
T3 sequence (Q9HC98 whole entry, species assumed): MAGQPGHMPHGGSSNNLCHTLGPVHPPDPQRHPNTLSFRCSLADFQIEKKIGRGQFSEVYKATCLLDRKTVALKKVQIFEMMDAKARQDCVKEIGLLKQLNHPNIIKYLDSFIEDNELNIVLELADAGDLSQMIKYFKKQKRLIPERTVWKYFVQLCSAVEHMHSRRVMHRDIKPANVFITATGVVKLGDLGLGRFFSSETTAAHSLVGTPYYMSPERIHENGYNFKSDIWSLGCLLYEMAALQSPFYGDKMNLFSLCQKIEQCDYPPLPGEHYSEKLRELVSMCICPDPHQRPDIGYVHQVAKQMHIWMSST

In the case of `O=C(Nc1cc(C(F)(F)F)cc(C(F)(F)F)c1)Nc1ccc(Br)cc1-c1nnn[nH]1` [SCO-101], the remaining activity at 10 µM (EIF2AK3) is reported as 103%, the remaining activity at 10 µM (BRK) is reported as 94% and the remaining activity at 10 µM (IRAK1) is reported as 115%. For the same compound, the remaining activity at 10 µM (NEK6) was 90%, the remaining activity at 10 µM (MNK2) was 104% and the remaining activity at 10 µM (SIK3) was 39%. The remaining activity at 10 µM (EPH-A4) was 101%, the remaining activity at 10 µM (MST4) was 117% and the remaining activity at 10 µM (ERK8) was 93%. The remaining activity at 10 µM (MKK6) was 108%, the remaining activity at 10 µM (RIPK2) was 121% and the remaining activity at 10 µM (CDK2-Cyclin A) was 113%. For the same compound, the remaining activity at 10 µM (CSK) was 106%, the remaining activity at 10 µM (ZAP70) was 99% and the remaining activity at 10 µM (WNK1) was 105%. The remaining activity at 10 µM (CK1γ2) was 109%, the remaining activity at 10 µM (TLK1) was 122% and the remaining activity at 10 µM (MSK1) was 101%. For the same compound, the remaining activity at 10 µM (PAK5) was 121%, the remaining activity at 10 µM (EF2K) was 95% and the remaining activity at 10 µM (VEG-FR) was 66%. It also gave a remaining activity at 10 µM (JNK2) of 105%, a remaining activity at 10 µM (TBK1) of 126% and a remaining activity at 10 µM (PINK) of 104%. For the same compound, the remaining activity at 10 µM (YES1) was 99%, the remaining activity at 10 µM (JNK1) was 105% and the remaining activity at 10 µM (CDK9-Cyclin T1) was 104%. The remaining activity at 10 µM (HIPK3) was 121%, the remaining activity at 10 µM (PKD1) was 122% and the remaining activity at 10 µM (DYRK2) was 78%. It also gave a remaining activity at 10 µM (JAK3) of 121%, a remaining activity at 10 µM (IRAK4) of 112% and a remaining activity at 10 µM (ASK1) of 136%. For the same compound, the “Kinase activity (percentage of DMSO control)” value (PHK) was 88 percentage of DMSO control, the remaining activity at 10 µM (CAMK1) was 57% and the remaining activity at 10 µM (FGF-R1) was 123%.
